Entries after “also recorded” stand apart in the source; their conditions may differ. Blank lines part the entries; values can stand above or below the molecule they belong to.
Legend:
Assay type in all cases: physicochemical
[1] = Competitive slurry experiments mixing Form 1 and Form 2 in various solvents
Method: Competitive slurry experiments were performed at 15° C. (Table 5) or 40° C. (Table 6) by mixing Form 1 and Form 2 in various solvents in acetonitrile/water, acetone/water and methanol/water mixtures. […] (Table 5) or 40° C. (Table 6).

[2] = Thermogravimetric analysis (loss of mass before melting/degradation); conditions: 25° C. to 250° C. at about 10° C./minute
Method: Thermogravimetric analysis (TGA) was performed. A 10 to 20 mg of sample of a crystalline form of 4-[(7-methoxy-2,3-dihydro-1,4-benzothiazepin-4(5H)yl)methyl]benzoic acid hemifumarate was placed into an aluminum pan, with nitrogen purge. The sample was equilibrated at 25° C. in a temperature-controlled chamber. The sample was heated at a scan rate of about 10° C./minute to 250° C. under nitrogen purge. A TGA Q5000 thermogravimetric analysis instrument was used.

[3] = Dynamic vapor sorption (hygroscopicity); conditions: DVS, 25° C., 0-90% relative humidity
Method: Dynamic vapor sorption (DVS) analysis was performed by measuring mass variation of the crystalline form of 4-[(7-methoxy-2,3-dihydro-1,4-benzothiazepin-4(5H)yl)methyl]benzoic acid hemifumarate as a function of relative humidity using a DVS intrinsic instrument. A 5 mg to 10 mg of a sample of a crystalline form of 4-[(7-methoxy-2,3-dihydro-1,4-benzothiazepin-4(5H)yl)methyl]benzoic acid, hemifumarate was placed into a sample pan of a DVS intrinsic instrument at 25° C. under controlled humidity. The mass variation was recorded as a function of relative humidity.
Measurement of DVS comprised: (a) equilibrating a sample of the crystalline form at 25° C. and 50% relative humidity in a temperature-controlled and humidity controlled chamber until mass variation is less than 0.002% per minute for 6 hours; (b) increasing the relative humidity from 50% to 90% at a rate of 10% per hour; (c) equilibrating the sample at 90% relative humidity until mass variation of less than 0.002% per minute for 6 hours is observed; (d) decreasing the relative humidity from 90% to 0% at a rate of 10% per hour; (e) equilibrating the sample at 0% relative humidity until mass variation of less than 0.002% per minute for 6 hours is observed; and (f) increasing the relative humidity from 0% to 50% at a rate of 10% per hour.

[4] = Storage stability of the polymorphs followed by XRD
Method: The top panel depicts the polymorph at initiation and the bottom three panels depict the polymorph after 24 months. FIG. 5 Panel A: initial control; FIG. 5 Panel B: sample stored for 2 years in open bottle in stability chambers at 25° C./60% relative humidity (RH); FIG. 5 Panel C: sample stored for 2 years in closed bottle in stability chambers at 40° C./75% RH; FIG. 5 Panel D: sample stored for 2 years in open bottle in stability chambers at 40° C./75% RH.
The top panel depicts the polymorph at initiation and the bottom panels depict the polymorph after 3, 6, 12 and 24 months.

XRD (form after competitive slurry) ([1]; 15° C. for 10 days, Acetone): Form 2
XRD (form after competitive slurry) ([1]; 15° C. for 10 days, Acetone/water 30/70): Form 2
XRD (form after competitive slurry) ([1]; 15° C. for 10 days, Acetone/water 90/10): Form 2
XRD (form after competitive slurry) ([1]; 15° C. for 10 days, Acetone/water 96/4): Form 2
XRD (form after competitive slurry) ([1]; 15° C. for 10 days, Acetone/water 98/2): Form 2
XRD (form after competitive slurry) ([1]; 15° C. for 10 days, Acetonitrile): Acetonitrile solvate (Form 4)
XRD (form after competitive slurry) ([1]; 15° C. for 10 days, Acetonitrile/water 15/85): Acetonitrile solvate (Form 4)
XRD (form after competitive slurry) ([1]; 15° C. for 10 days, Acetonitrile/water 87/13): Acetonitrile solvate (Form 4)
XRD (form after competitive slurry) ([1]; 15° C. for 10 days, Acetonitrile/water 94/6): Acetonitrile solvate (Form 4)
XRD (form after competitive slurry) ([1]; 15° C. for 10 days, Acetonitrile/water 98/2): Acetonitrile solvate (Form 4)
XRD (form after competitive slurry) ([1]; 15° C. for 10 days, Methanol): Methanol solvate (Form 3)
XRD (form after competitive slurry) ([1]; 15° C. for 10 days, Methanol/water 20/80): Form 2 + Methanol solvate
XRD (form after competitive slurry) ([1]; 15° C. for 10 days, Methanol/water 50/50): Methanol solvate (Form 3)
XRD (form after competitive slurry) ([1]; 15° C. for 10 days, Methanol/water 70/30): Methanol solvate (Form 3)
XRD (form after competitive slurry) ([1]; 15° C. for 10 days, Methanol/water 95/5): Methanol solvate (Form 3)
XRD (form after competitive slurry) ([1]; 15° C. for 10 days, Water): Form 2
XRD (form after competitive slurry) ([1]; 40° C. for 5 days, Acetone): Form 2
XRD (form after competitive slurry) ([1]; 40° C. for 5 days, Acetone/water 30/70): Form 2
XRD (form after competitive slurry) ([1]; 40° C. for 5 days, Acetone/water 90/10): Form 2
XRD (form after competitive slurry) ([1]; 40° C. for 5 days, Acetone/water 96/4): Form 2
XRD (form after competitive slurry) ([1]; 40° C. for 5 days, Acetone/water 98/2): Form 2
XRD (form after competitive slurry) ([1]; 40° C. for 5 days, Acetonitrile): Acetonitrile solvate (Form 4)
XRD (form after competitive slurry) ([1]; 40° C. for 5 days, Acetonitrile/water 15/85): Acetonitrile solvate (Form 4)
XRD (form after competitive slurry) ([1]; 40° C. for 5 days, Acetonitrile/water 87/13): Acetonitrile solvate (Form 4)
XRD (form after competitive slurry) ([1]; 40° C. for 5 days, Acetonitrile/water 94/6): Acetonitrile solvate (Form 4)
XRD (form after competitive slurry) ([1]; 40° C. for 5 days, Acetonitrile/water 98/2): Acetonitrile solvate (Form 4)
XRD (form after competitive slurry) ([1]; 40° C. for 5 days, Methanol): Methanol solvate (Form 3)
XRD (form after competitive slurry) ([1]; 40° C. for 5 days, Methanol/water 20/80): Form 2 + Methanol solvate
XRD (form after competitive slurry) ([1]; 40° C. for 5 days, Methanol/water 50/50): Methanol solvate (Form 3)
XRD (form after competitive slurry) ([1]; 40° C. for 5 days, Methanol/water 70/30): Methanol solvate (Form 3)
XRD (form after competitive slurry) ([1]; 40° C. for 5 days, Methanol/water 95/5): Methanol solvate (Form 3)
XRD (form after competitive slurry) ([1]; 40° C. for 5 days, Water): Form 2
Form obtained from slurry ([1]; acetone/water mixtures, all tested conditions): converted into Form 2
Form obtained from slurry ([1]; methanol/water (20/80 v/v)): a mixture of Form 2 and methanol solvate
Compound: COc1ccc2c(c1)CN(Cc1ccc(C(=O)O)cc1)CCS2.O=C(O)/C=C/C(=O)O [Form 1 and Form 2]
Form obtained from slurry ([1]; acetonitrile/water mixtures, all tested ratios, 15° C. or 40° C.): converted into the acetonitrile solvate (Form 4)
Form obtained from slurry ([1]; methanol/water mixtures, all tested ratios except 20/80 v/v, 15° C. or 40° C.): converted into the methanol solvate (Form 3)

Loss of mass before melting degradation (TGA) [2]: about 1%
Storage time without any detectable conversion into Form 2 ([4]; XRD, FIG. 5): at least 24 months
Stability of the polymorph on storage (XRD, FIG. 5) ([4]; after 24 months, open bottle 25° C./60% RH, closed bottle 40° C./75% RH, open bottle 40° C./75% RH): stable
Compound: COc1ccc2c(c1)CN(Cc1ccc(C(=O)O)cc1)CCS2.O=C(O)/C=C/C(=O)O [Form 1, 4-[(7-methoxy-2,3-dihydro-1,4-benzothiazepin-4(5H)yl)methyl]benzoic acid, hemifumarate]
Hygroscopicity [3]: slightly hygroscopic; also recorded: non-hygroscopic
